In publication PMC7520961, “Safety evaluation of the interchangeable use of robenacoxib in commercially-available tablets and solution for injection in cats” (BMC Veterinary Research, 2020):

Key:
cats [1] = conditions: in vivo
cats [2] = conditions: in vivo; remark: listed apart in the source
cats [3] = conditions: in vivo; remark: listed apart in the source
Experimental: Necropsies were performed in cage order. All animals were euthanized on Day 38 by intramuscular sedation with ketamine followed approximately 30 min later in a different room by an intravenous overdose of sodium pentobarbital solution and exsanguination, under procedures approved by a veterinary pathologist and according to the study site’s standard operating procedures. After a complete post-mortem evaluation, tissue samples were collected for histopathological analysis. Additionally, the following organs were weighed before tissues were collected: adrenal gland, aorta, brain, epididymis, heart, kidney, liver, lung with bronchi, ovary, pituitary, prostate, salivary gland (mandibular), spleen, testis, thymus, thyroid gland (with parathyroid), and uterus with cervix. In order to correct for body weight and size, the ratio of organ weight to body weight and brain weight was calculated for each animal. Tissues, including any gross lesions identified during the necropsy, were fixed in neutral buffered formalin, except the eye including optic nerve and testes were fixed using a modified Davidson’s fixative [36]. Tissue sections were stained with hematoxylin and eosin and evaluated by a board-certified veterinary pathologist. A bone marrow smear was collected from a rib at necropsy and analyzed qualitatively by a board-certified veterinary clinical pathologist.

[4] = Dissolution of robenacoxib tablets with or without gelatin capsule; type: physicochemical; conditions: by 40 minutes; tablets whether or not encapsulated in gelatin capsules; data not shown
cats [5] = assay: Hematology, coagulation and urinalysis (target animal safety study); type: in vivo, cat; conditions: for Absolute Punctate Reticulocyte (mean ± SD) / Basophils (mean ± SD) / Other Cells (mean ± SD) / Monocytes (mean ± SD) / Eosinophils (mean ± SD) / Neutrophils (mean ± SD) / Lymphocytes (mean ± SD) / Erythrocytes (mean ± SD) / Leukocytes (mean ± SD) / Hemoglobin (mean ± SD) / Prothrombin Time (mean ± SD) / APTT (mean ± SD) / MCH (mean ± SD) / Absolute Aggregate Reticulocyte (mean ± SD) / Hematocrit (mean ± SD) / MCHC (mean ± SD) / MCV (mean ± SD) / Platelets (mean ± SD) / Fibrinogen (mean ± SD): post-treatment, average of days 13 and 37; for Basophils (mean ± SD): reference range 0 - 0.03; for Other Cells (mean ± SD): reference range 0 - 0.05; for Monocytes (mean ± SD): reference range 0 - 0.81; for Eosinophils (mean ± SD): reference range 0 - 1.31, significant treatment x sex effect (p<0.1); for Neutrophils (mean ± SD): reference range 0 - 12.65; for Lymphocytes (mean ± SD): reference range 2.18 - 13.48; for Erythrocytes (mean ± SD): reference range 5.36 - 10.78; for Leukocytes (mean ± SD): reference range 6.3 - 27.2; for Hemoglobin (mean ± SD): reference range 7.5 - 14.4; for Prothrombin Time (mean ± SD): reference range 8.7 - 11; for APTT (mean ± SD): reference range 11.2 - 18.7; for MCH (mean ± SD): reference range 11.9 - 15.1; for Absolute Aggregate Reticulocyte (mean ± SD): reference range 12.9 - 106.6; for Hematocrit (mean ± SD): reference range 22.5 - 41.6; for MCHC (mean ± SD): reference range 30.4 - 38; for MCV (mean ± SD): reference range 34.3 - 47.5; for Platelets (mean ± SD): reference range 107 - 779; for Fibrinogen (mean ± SD): reference range 152 - 278
Experimental: Buccal mucosal bleeding times (BMBT) were measured on all animals on Days − 5 and 36 following ECG examinations while the animals were sedated. The upper lip was everted and a Surgicutt incision device was used to create a small incision (approximately 1 mm in depth and 3.5 mm in length). Blood flow from the incision site was blotted using filter paper below the incision. The elapsed time from the triggering of the device until blood no longer appeared on the filter paper was recorded as the bleed time. Clinical pathology evaluations were conducted on all animals on Days − 13 and − 6 and prior to dosing on Days 13 and 37. Because reference values given by the laboratory were (slightly) different for males and females, they were combined (i.e. lower of the two lower bounds to higher of the two upper bounds) for the tables. Animals were fasted 8–12 hours overnight prior to blood collection. Blood samples (3.0 mL) were collected from the jugular vein into tubes containing K3EDTA for evaluation of hematology parameters, sodium citrate for evaluation of coagulation parameters, and serum separators with no anticoagulant for the clinical chemistry samples. Urine samples were collected on Days […], 13, and 37 by replacing the litter in the litter box with NoSorb® (Creative Science, LLC, Ballwin, MO, USA) for at least 16 hours. Hematology variables were determined using an Advia 120 or Advia 2120 (Siemens, Munich, Germany), light microscope, or sediplast column (Polymedco, NY, US). Coagulation variables were determined using a Stago Compact (Diagnostica Stago, Parsippany, NJ, US), clinical chemistry variables were determined using an Olympus AU2700 or AU640e (Olympus Diagnostics, Southall, UK), and urinalysis variables were determined using a Clinitek-500 or Atlas (Siemens, Munich, Germany), Reichert VET 360 (Reichert Technologies, Buffalo, New York, USA), or light microscope.
Post-treatment values were analyzed using RMANCOVA, with treatment group, sex, time, and their interactions as fixed model effects and the pre-treatment value measured closest to dosing as a covariate. Repeated measurements in the same animal were modeled using a compound symmetry or heterogeneous compound symmetry correlation structure (for food consumption: autoregressive first-order or heterogeneous autoregressive first-order); the model with the smallest Akaike’s Information Criterion was selected for each outcome.
If any of the interactions involving treatment was significant (p < 0.1 for the two-factor interactions or p < 0.05 for the three-factor interaction), it was inappropriate to evaluate the main or overall treatment effect independently of the interacting factor and, as such, treatment comparisons were conducted for each level of the interacting factor. If none of the interactions involving treatment were significant, overall treatment differences were assessed.

[6] = design: method as in PMID 19161452, PMID 23438125; conditions: elimination in the cat; cited from earlier work
[7] = 1X (oral ≥2.4, SC 2.0 mg/kg/day)
[8] = 2X (oral ≥4.8, SC 4.0 mg/kg/day)
[9] = 3X (oral ≥7.2, SC 6.0 mg/kg/day)

For `CCc1ccc(Nc2c(F)c(F)cc(F)c2F)c(CC(=O)O)c1` [robenacoxib], the “opthalmoscopic, physical and neurological examinations” value (cats [1]) was “no treatment-related effects”, the “QT duration vs control (RR interval as covariate)” value (cats [2]) was “No prolongation” and the “QT interval, average post-treatment” value (cats [2]) was “approximately 160 ms”. The “QT interval, average pretest values” (cats [2]) was “approximately 140 ms”, the “mean baseline heart rate” value (cats [2]) was “approximately 305 bpm” and the “mean heart rate post treatment” value (cats [2]) was 260-277 bpm. For the same molecule, the “qualitative assessment of electrocardiograms” value (cats [2]) was “qualitatively normal”, the Robenacoxib-related microscopic findings (cats [3]) was “increased injection site subacute/chronic inflammation” and the “absolute liver weight increase compared to control” value (cats [3]) was 14%. The “severity of injection site inflammation observations” value (cats [3]) was “minimal”, the robenacoxib dissolved [4] was “approximately 93%” and the “Absolute Punctate Reticulocyte (mean ± SD)” value (cats [5]; [7]) was 2277 ± 658 10^3/µL. The “Basophils (mean ± SD)” value (cats [5]; [7]) was 0.006 ± 0.011 10^3/µL, the “Other Cells (mean ± SD)” value (cats [5]; [7]) was 0.62 ± 0.95 10^3/µL and the “Monocytes (mean ± SD)” value (cats [5]; [7]) was 0.27 ± 0.22 10^3/µL. The “Eosinophils (mean ± SD)” value (cats [5]; [7]) was 1.08 ± 0.40 10^3/µL, the “Neutrophils (mean ± SD)” value (cats [5]; [7]) was 5.28 ± 1.75 10^3/µL and the “Lymphocytes (mean ± SD)” value (cats [5]; [7]) was 6.69 ± 2.61 10^3/µL. The “Erythrocytes (mean ± SD)” value (cats [5]; [7]) was 7.24 ± 0.88 10^6/µL, the “Leukocytes (mean ± SD)” value (cats [5]; [7]) was 13.95 ± 4.43 10^3/µL and the “Hemoglobin (mean ± SD)” value (cats [5]; [7]) was 9.96 ± 0.98 g/dL. The “Prothrombin Time (mean ± SD)” value (cats [5]; [7]) was 11.03 ± 0.62 s, the “APTT (mean ± SD)” value (cats [5]; [7]) was 23.35 ± 16.35 s and the “MCH (mean ± SD)” value (cats [5]; [7]) was 13.82 ± 0.81 pg. For the same molecule, the “Absolute Aggregate Reticulocyte (mean ± SD)” value (cats [5]; [7]) was 4.02 ± 4.81 10^3/µL, the “Hematocrit (mean ± SD)” value (cats [5]; [7]) was 30.66 ± 3.36% and the “MCHC (mean ± SD)” value (cats [5]; [7]) was 32.53 ± 0.55 g/dL. For the same molecule, the “MCV (mean ± SD)” value (cats [5]; [7]) was 42.49 ± 2.78 fL, the “Platelets (mean ± SD)” value (cats [5]; [7]) was 253.7 ± 157.1 10^3/µL and the “Fibrinogen (mean ± SD)” value (cats [5]; [7]) was 180.8 ± 37.0 mg/dL. For the same molecule, the “Absolute Punctate Reticulocyte (mean ± SD)” value (cats [5]; [8]) was 1915 ± 702 10^3/µL, the “Basophils (mean ± SD)” value (cats [5]; [8]) was 0.010 ± 0.011 10^3/µL and the “Other Cells (mean ± SD)” value (cats [5]; [8]) was 0.30 ± 0.71 10^3/µL. The “Monocytes (mean ± SD)” value (cats [5]; [8]) was 0.28 ± 0.14 10^3/µL, the “Eosinophils (mean ± SD)” value (cats [5]; [8]) was 0.94 ± 0.52 10^3/µL and the “Neutrophils (mean ± SD)” value (cats [5]; [8]) was 5.73 ± 1.34 10^3/µL. The “Lymphocytes (mean ± SD)” value (cats [5]; [8]) was 6.16 ± 1.81 10^3/µL, the “Erythrocytes (mean ± SD)” value (cats [5]; [8]) was 7.58 ± 0.82 10^6/µL and the “Leukocytes (mean ± SD)” value (cats [5]; [8]) was 13.43 ± 3.10 10^3/µL. The “Hemoglobin (mean ± SD)” value (cats [5]; [8]) was 9.99 ± 1.06 g/dL, the “Prothrombin Time (mean ± SD)” value (cats [5]; [8]) was 10.77 ± 0.56 s and the “APTT (mean ± SD)” value (cats [5]; [8]) was 16.68 ± 2.52 s. The “MCH (mean ± SD)” value (cats [5]; [8]) was 13.21 ± 0.99 pg, the “Absolute Aggregate Reticulocyte (mean ± SD)” value (cats [5]; [8]) was 1.38 ± 4.14 10^3/µL and the “Hematocrit (mean ± SD)” value (cats [5]; [8]) was 30.17 ± 3.65%. For the same molecule, the “MCHC (mean ± SD)” value (cats [5]; [8]) was 33.14 ± 0.65 g/dL, the “MCV (mean ± SD)” value (cats [5]; [8]) was 39.86 ± 3.11 fL and the “Platelets (mean ± SD)” value (cats [5]; [8]) was 334.7 ± 155.9 10^3/µL. For the same molecule, the “Fibrinogen (mean ± SD)” value (cats [5]; [8]) was 180.3 ± 22.2 mg/dL, the “Absolute Punctate Reticulocyte (mean ± SD)” value (cats [5]; [9]) was 2129 ± 555 10^3/µL and the “Basophils (mean ± SD)” value (cats [5]; [9]) was 0.006 ± 0.007 10^3/µL. For the same molecule, the “Other Cells (mean ± SD)” value (cats [5]; [9]) was 0.44 ± 0.92 10^3/µL, the “Monocytes (mean ± SD)” value (cats [5]; [9]) was 0.26 ± 0.15 10^3/µL and the “Eosinophils (mean ± SD)” value (cats [5]; [9]) was 1.10 ± 0.40 10^3/µL. For the same molecule, the “Neutrophils (mean ± SD)” value (cats [5]; [9]) was 5.46 ± 1.04 10^3/µL, the “Lymphocytes (mean ± SD)” value (cats [5]; [9]) was 7.50 ± 2.64 10^3/µL and the “Erythrocytes (mean ± SD)” value (cats [5]; [9]) was 7.73 ± 0.88 10^6/µL. For the same molecule, the “Leukocytes (mean ± SD)” value (cats [5]; [9]) was 14.76 ± 3.66 10^3/µL, the “Hemoglobin (mean ± SD)” value (cats [5]; [9]) was 10.13 ± 1.15 g/dL and the “Prothrombin Time (mean ± SD)” value (cats [5]; [9]) was 10.84 ± 0.46 s. For the same molecule, the “APTT (mean ± SD)” value (cats [5]; [9]) was 16.83 ± 2.52 s, the “MCH (mean ± SD)” value (cats [5]; [9]) was 13.11 ± 0.65 pg and the “Absolute Aggregate Reticulocyte (mean ± SD)” value (cats [5]; [9]) was 1.45 ± 4.17 10^3/µL. For the same molecule, the “Hematocrit (mean ± SD)” value (cats [5]; [9]) was 30.90 ± 3.81%, the “MCHC (mean ± SD)” value (cats [5]; [9]) was 32.80 ± 1.57 g/dL and the “MCV (mean ± SD)” value (cats [5]; [9]) was 40.03 ± 2.65 fL. For the same molecule, the “Platelets (mean ± SD)” value (cats [5]; [9]) was 301.4 ± 173.8 10^3/µL, the “Fibrinogen (mean ± SD)” value (cats [5]; [9]) was 172.5 ± 16.3 mg/dL and the “coagulation or urinalysis values between groups” value (cats [5]; all groups during the study) was “no significant differences”. For the same molecule, the half-life [6] was “less than 2 hours”.
